Activity calls are given as the source filed them. The rule behind the calls is not given here.
Tests used:
[1] = test system: RPTEC; experiment: Effect on COX-2 gene expression in human RPTEC cells at 26 uM incubated for 24 hrs by qPCR analysis; assay type: functional, cell-based
[2] = test system: RPTEC; experiment: Effect on nitrate level in human RPTEC cells at 26 uM incubated for 24 hrs by microplate reader analysis; assay type: functional, cell-based
[3] = test system: RPTEC; experiment: Antiinflammatory activity in LPS-induced human RPTEC cells assessed as decrease in IL-1beta gene expression at 26 uM incubated for 24 hrs by qPCR analysis relative to control; assay type: functional; design: scale not given: the % may be the effect or the level left
[4] = test system: RPTEC; experiment: Cytotoxicity against human RPTEC cells assessed as reduction in cell viability at 26 uM incubated for 24 hrs in presence of LPS by MTT assay; assay type: toxicity, cell-based
[5] = test system: RPTEC; experiment: Effect on IL-6 gene expression in human RPTEC cells at 26 uM incubated for 24 hrs by qPCR analysis; assay type: functional, cell-based
[6] = test system: RPTEC; experiment: Effect on total NO level in human RPTEC cells at 26 uM incubated for 24 hrs by microplate reader analysis; assay type: functional, cell-based
[7] = test system: RPTEC; experiment: Effect on nitrite level in human RPTEC cells at 26 uM incubated for 24 hrs by microplate reader analysis; assay type: functional, cell-based
[8] = test system: RPTEC; experiment: Antiinflammatory activity against LPS-induced human RPTEC cells assessed as reduction in total NO level at 26 uM incubated for 24 hrs by microplate reader analysis relative to control; assay type: functional; design: scale not given: the % may be the effect or the level left
[9] = test system: RPTEC; experiment: Antiinflammatory activity against LPS-induced human RPTEC cells assessed as reduction in nitrite level at 26 uM incubated for 24 hrs by microplate reader analysis relative to control; assay type: functional; design: scale not given: the % may be the effect or the level left
[10] = test system: RPTEC; experiment: Antiinflammatory activity against LPS-induced human RPTEC cells assessed as reduction in COX-2 gene expression at 26 uM incubated for 24 hrs by qPCR analysis relative to control; assay type: functional; design: scale not given: the % may be the effect or the level left
[11] = test system: RPTEC; experiment: Antiinflammatory activity against LPS-induced human RPTEC cells assessed as reduction in iNOS gene expression at 26 uM incubated for 24 hrs by qPCR analysis relative to control; assay type: functional; design: scale not given: the % may be the effect or the level left
[12] = test system: RPTEC; experiment: Effect on nitrate level in LPS-induced human RPTEC cells at 26 uM incubated for 24 hrs by microplate reader analysis; assay type: functional, cell-based
[13] = test system: RAW264.7; experiment: Inhibition of NO production in LPS-induced mouse RAW264.7 cells incubated for 24 hrs by absorbance based assay; assay type: functional, cell-based; details: RAW264.7, 24 h
[14] = test system: RPTEC; experiment: Antiinflammatory activity in LPS-induced human RPTEC cells assessed as decrease in IL6 gene expression at 26 uM incubated for 24 hrs by qPCR analysis relative to control; assay type: functional; design: scale not given: the % may be the effect or the level left
[15] = test system: RPTEC; experiment: Antiinflammatory activity in LPS-induced human RPTEC cells assessed as downregulation of TNFalpha gene expression at 26 uM incubated for 24 hrs by qPCR analysis relative to control; assay type: functional
[16] = test system: RPTEC; experiment: Cytotoxicity against human RPTEC cells assessed as reduction in cell viability at 26 uM incubated for 24 hrs in absence of LPS by MTT assay; assay type: toxicity, cell-based
[17] = test system: RPTEC; experiment: Effect on iNOS gene expression in human RPTEC cells at 26 uM incubated for 24 hrs by qPCR analysis; assay type: functional, cell-based
[18] = test system: RPTEC; experiment: Effect on IL-1beta gene expression in human RPTEC cells at 26 uM incubated for 24 hrs by qPCR analysis; assay type: functional, cell-based
[19] = test system: RPTEC; experiment: Upregulation of COX-2 gene expression in human RPTEC cells at 26 uM incubated for 24 hrs by qPCR analysis; assay type: functional, cell-based
[20] = test system: RPTEC; experiment: Upregulation of IL-1beta gene expression in human RPTEC cells at 26 uM incubated for 24 hrs by qPCR analysis; assay type: functional, cell-based
[21] = test system: RPTEC; experiment: Upregulation of IL-6 gene expression in human RPTEC cells at 26 uM incubated for 24 hrs by qPCR analysis; assay type: functional, cell-based
[22] = Downregulation of TNF-alpha gene expression in human RPTEC cells at 26 uM incubated for 24 hrs by qPCR analysis relative to control; assay type: functional
[23] = Downregulation of IL-1beta gene expression in human RPTEC cells at 26 uM incubated for 24 hrs by qPCR analysis relative to control; assay type: functional
[24] = Downregulation of COX-2 gene expression in human RPTEC cells at 26 uM incubated for 24 hrs by qPCR analysis relative to control; assay type: functional
[25] = test system: RPTEC; experiment: Antiinflammatory activity in LPS-induced human RPTEC cells assessed as decrease in IL-1beta gene expression at 28 uM incubated for 24 hrs by qPCR analysis relative to control; assay type: functional; design: scale not given: the % may be the effect or the level left
[26] = test system: RPTEC; experiment: Antiinflammatory activity against LPS-induced human RPTEC cells assessed as reduction in COX-2 gene expression at 28 uM incubated for 24 hrs by qPCR analysis relative to control; assay type: functional; design: scale not given: the % may be the effect or the level left
[27] = test system: RPTEC; experiment: Antiinflammatory activity against LPS-induced human RPTEC cells assessed as reduction in iNOS gene expression at 28 uM incubated for 24 hrs by qPCR analysis relative to control; assay type: functional; design: scale not given: the % may be the effect or the level left
[28] = Downregulation of TNF-alpha gene expression in human RPTEC cells at 28 uM incubated for 24 hrs by qPCR analysis relative to control; assay type: functional
[29] = test system: RPTEC; experiment: Antiinflammatory activity against LPS-induced human RPTEC cells assessed as reduction in nitrite level at 28 uM incubated for 24 hrs by microplate reader analysis relative to control; assay type: functional; design: scale not given: the % may be the effect or the level left
[30] = test system: RPTEC; experiment: Antiinflammatory activity in LPS-induced human RPTEC cells assessed as decrease in IL6 gene expression at 28 uM incubated for 24 hrs by qPCR analysis relative to control; assay type: functional; design: scale not given: the % may be the effect or the level left
[31] = test system: RPTEC; experiment: Effect on COX-2 gene expression in human RPTEC cells at 28 uM incubated for 24 hrs by qPCR analysis; assay type: functional, cell-based
[32] = test system: RPTEC; experiment: Antiinflammatory activity in LPS-induced human RPTEC cells assessed as downregulation of TNFalpha gene expression at 28 uM incubated for 24 hrs by qPCR analysis relative to control; assay type: functional
[33] = test system: RPTEC; experiment: Effect on nitrate level in LPS-induced human RPTEC cells at 28 uM incubated for 24 hrs by microplate reader analysis; assay type: functional, cell-based

IC50 [13] | Structure (SMILES) | Activity [1] | Activity [2] | Activity [3] | Activity [4] | Activity [5] | Activity [6] | Activity [7] | Activity [8] | Activity [9] | Activity [10] | Activity [11] | Activity [12] | Activity [14] | Activity [15] | Activity [16] | Activity [17] | Activity [18] | further results
0.78 µM | CC1(C)Oc2ccc(CC3=C(c4ccc(O)cc4)C(=O)NC3=O)cc2C[C@@H]1O | inactive | inactive | 52% | Non-Toxic | inactive | inactive | inactive | ~18% | 24% | 52% | 52% | inactive | 39% | 58% | Non-Toxic | inactive | inactive | –
– | CC1(C)Oc2ccc(CC3=C(c4ccc(O)cc4)C(=O)NC3=O)cc2CC1O (racemic) | – | inactive | 52% | Non-Toxic | – | inactive | inactive | ~37% | 45% | 53% | 57% | inactive | 44% | 44% | Non-Toxic | inactive | – | Activity [19]: Active; Activity [20]: Active; Activity [21]: Active
– | CC1(C)Oc2ccc(CC3=C(c4ccc(O)cc4)C(=O)OC3=O)cc2CC1O (stereo not given) | – | inactive | 61% | Non-Toxic | inactive | inactive | inactive | ~35% | 45% | 61% | 67% | inactive | 55% | 67% | Non-Toxic | inactive | – | Activity [22]: ~38%; Activity [23]: 24%; Activity [24]: ~20%
– | CC1(C)Oc2ccc(CC3=C(c4ccc(O)cc4)C(=O)OC3=O)cc2C[C@@H]1O | inactive | inactive | 52% | Non-Toxic | inactive | inactive | inactive | ~33% | 45% | 49% | 47% | inactive | 48% | 57% | Non-Toxic | inactive | inactive | –
37.5 µM | COc1ccc2c(c1)c(CC(=O)O)c(C)n2C(=O)c1ccc(Cl)cc1 [INDOMETHACIN] | – | – | – | – | – | – | – | – | – | – | – | – | – | – | – | – | – | Activity [25]: 56%; Activity [26]: 61%; Activity [27]: 59%; Activity [28]: ~38%; Activity [29]: 45%; Activity [30]: 57%; Activity [31]: inactive; Activity [32]: 64%; Activity [33]: inactive
